Source: patent US20240245691A1 (Sitryx Therapeutics Limited, priority 2021, published 2024)
Where two headings read alike, the source gives them in different places.

How the values were obtained:
[1] = tested on: IL-6; assay: THP-1 AlphaLISA IL-6 cytokine assay (differentiated THP-1 cells); assay type: cell-based; details: Homo sapiens
In short: (§1)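 PMA-differentiated THP-1 cells were preincubated 30 min with compound, stimulated with LPS for 24 h, then nigericin for 1 h, all at 37 °C. Supernatant IL-1β and IL-6 were quantified by AlphaLISA. % inhibition is normalised to +LPS and −LPS controls per cytokine.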

[2] = Hepatocyte stability assay, mouse; assay type: in vitro ADME; details: mouse, hepatocytes, T½
In short: (§2)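 Cryopreserved hepatocytes at 0.5×10^6 cells/mL in Leibovitz buffer, 37 °C, with 10 μM compound (0.1% DMSO), duplicate. Samples at 0-60 min, acetonitrile quench, LC-MS/MS; intrinsic clearance and half-life from ln % remaining versus time, with buffer-only incubations as control.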

[3] = tested on: cryo-preserved hepatocytes; assay: Hepatocyte stability assay, mouse; assay type: in vitro ADME; details: mouse, hepatocytes
In short: as §2

[4] = tested on: IL-1β; assay: THP-1 AlphaLISA IL-1β cytokine assay (differentiated THP-1 cells); assay type: cell-based; details: Homo sapiens
In short: as §1

[5] = Hepatocyte stability assay, human; assay type: in vitro ADME; details: human, hepatocytes, T½
In short: as §2

[6] = tested on: cryo-preserved hepatocytes; assay: Hepatocyte stability assay, human; assay type: in vitro ADME; details: human, hepatocytes
In short: as §2

[7] = tested on: NRF2 (nuclear factor erythroid 2-related factor 2); assay: NRF2 +/-GSH activation assay (DiscoverX PathHunter NRF2 translocation kit, U2OS cells); assay type: cell-based; details: Homo sapiens
[8] = tested on: plasma protein; assay: Plasma protein binding (rapid equilibrium dialysis), mouse; assay type: in vitro ADME; details: 5 μM compound, 4 hours
Method: (§3) Equilibrium dialysis is an accurate and reliable method for determining protein binding affinities to chemical or biological substances of low molecular weight. The Rapid Equilibrium Dialysis (RED) plate is specifically designed and extensively validated for plasma protein binding assays. It is also designed for minimal non-specific binding (Thermo Fisher).
(§4) • Phosphate buffered saline (PBS) pH 7.4 was prepared using PBS tablets as per the manufacturer's instructions. • Compound and marker stocks were prepared at 10 mM in DMSO and further diluted to 100× the assay concentration in DMSO. • Plasma was thawed on the day of the assay and centrifuged. The supernatant was transferred to a fresh vessel and the pH adjusted to pH 7.4 using lactic acid or sodium hydroxide.
(§5) Pre-prepared 100× assay compound stocks were spiked 1:100 into pH adjusted plasma. 200 μL of spiked plasma was added to the red compartment of the rapid equilibrium dialysis (RED) device for each replicate. 350 μL of PBS was added to the buffer compartment. The plate was sealed with a breathable lid and shaken on an orbital shaker in a 37° C. incubator, 5% CO2 for 4 hours.
(§6) Standard final incubation conditions were 5 μM compound in plasma containing 1% (v/v) DMSO.
(§7) A sample of the plasma/compound mixture was taken, mixed with an equal volume of PBS and quenched 1:3 with ice-cold acetonitrile containing internal standard. Methanol was also added to matrix match with calibration curve samples. This was the t=0 sample.
(§8) Post-incubation, plasma and buffer were sampled from their respective RED device compartments into separate tubes containing an equal volume of the alternate matrix for each replicate. Samples were quenched 1:3 with ice-cold acetonitrile containing internal standard. Methanol was also added to matrix match with calibration curve samples.
Calibration curves were prepared in methanol and spiked such that the matrix was equivalent to the assay samples. […]
(§9) Fraction unbound, percent bound and percent recovery were the standard assay parameters reported. They were calculated using the following equations: […]

[9] = tested on: plasma protein; assay: Plasma protein binding (rapid equilibrium dialysis), human; assay type: in vitro ADME; details: Human plasma, 5 μM compound, 4 hours
Method: as §3, §4, §5, §6, §7, §8
Calibration curves were prepared in methanol and spiked such that the matrix was equivalent to the assay samples.
Quenched samples were mixed thoroughly and protein precipitated at −20° C. for a minimum of 12 hours. Samples were then centrifuged at 4° C. Supernatants were transferred to a fresh 96 well plate for analysis.
Positive control markers were included.
as §9
An example compound of formula (I) was tested in this assay. Reference Example 2 (RE2) (which corresponds to Example 49 in WO2020/222011 (Sitryx Therapeutics, 2020)) was used as a comparator compound.

[10] = THP-1, differentiated THP-1 cells, LPS 24 hr then Nigericin 1 hour, read-out: IL-6 (IC50)
[11] = THP-1, differentiated THP-1 cells, LPS 24 hr then Nigericin 1 hour, read-out: IL-1β (IC50)
[12] = U2OS, +GSH, normalised to dimethyl fumarate high control, read-out: NRF2 activation Emax, +GSH
[13] = U2OS, −GSH, normalised to dimethyl fumarate high control, read-out: NRF2 activation Emax, −GSH
[14] = +GSH, U2OS PathHunter cells, 6 hours, read-out: NRF2 activation EC50, +GSH
[15] = −GSH, U2OS PathHunter cells, 6 hours, read-out: NRF2 activation EC50, −GSH
[16] = U2OS, 6 h, read-out: NRF2 activation EC50, +GSH
[17] = U2OS, 6 h, read-out: NRF2 activation EC50, −GSH
[18] = U2OS, read-out: NRF2 activation Emax, +GSH
[19] = U2OS, read-out: NRF2 activation Emax, −GSH

Row | SMILES | IC50 [1, 10] [µM] | half-life at 10 μM [2] [min] | Clint [3] [μL min^−1 10^−6 cells] | IC50 [4, 11] [µM] | half-life at 10 μM [5] [min] | Clint [6] [μL min^−1 10^−6 cells] | Emax [7, 12] [%] | Emax [7, 13] [%] | EC50 [7, 14] [µM] | EC50 [7, 15] [µM] | IC50 ([1]; THP-1, read-out: IL-6 (IC50)) [µM] | IC50 ([4]; THP-1, read-out: IL-1β (IC50)) [µM] | EC50 [7, 16] [µM] | EC50 [7, 17] [µM] | Emax [7, 18] [%] | Emax [7, 19] [%] | Binding (%) [8] [%] | Binding (%) [9] [%]
1 | C=C(CC(=O)NC1(c2ccc(C(F)(F)F)cc2)CCC1)C(=O)OC1CCN(S(C)(=O)=O)CC1 [Example 9, 1-(methylsulfonyl)piperidin-4-yl 2-methylene-4-oxo-4-((1-(4-(trifluoromethyl)phenyl)cyclobutyl)amino)butanoate] | 7.27 | 3.5 | 619 | 8.2 | 10 | 116 | 55 | 109 | > 100 | 19.2 | – | – | – | – | – | – | – | –
2 | C=C(CC(=O)N[C@@H](C)c1ccc(C(F)(F)F)cc1)C(=O)OC1CCN(S(C)(=O)=O)CC1 [Example 22, 1-(methylsulfonyl)piperidin-4-yl (S)-2-methylene-4-oxo-4-((1-(4-(trifluoromethyl)phenyl)ethyl)amino)butanoate] | 3.6 | 13 | 99 | 7.1 | 37 | 49 | 8 | 3 | > 100 | > 100 | – | – | – | – | – | – | – | –
3 | C=C(CC(=O)N[C@@H](C)c1ccc(C(F)(F)F)cc1)C(=O)OC1CCN(C)CC1 [Example 24, 1-methylpiperidin-4-yl (S)-2-methylene-4-oxo-4-((1-(4-(trifluoromethyl)phenyl)ethyl)amino)butanoate] | 4 | 8 | 199 | 4.7 | 65 | 23 | 30 | 78 | > 100 | 9.05 | – | – | – | – | – | – | – | –
4 | C=C(CC(=O)N[C@@H](C)c1ccc(C(F)(F)F)cc1)C(=O)OC1CS(=O)(=O)C1 [Example 27, 1,1-dioxidothietan-3-yl (S)-2-methylene-4-oxo-4-((1-(4-(trifluoromethyl)phenyl)ethyl)amino)butanoate] | 1.4 | 6 | 215 | 3.3 | 12 | 126 | 10 | 84 | > 100 | 6.3 | – | – | – | – | – | – | – | –
5 | C=C(CC(=O)N[C@@H](C)c1ccc(C(F)(F)F)cc1)C(=O)OCCN1CCOCC1 [Example 29] | 6.7 | 13 | 130 | 10.3 | 38 | 39 | 22 | 86 | > 100 | 22.7 | – | – | – | – | – | – | – | –
6 | C=C(CC(=O)N[C@@H](C)c1ccc(C(F)(F)F)cn1)C(=O)OC1CCN(S(C)(=O)=O)CC1 [Example 31, 1-(methylsulfonyl)piperidin-4-yl (S)-2-methylene-4-oxo-4-((1-(5-(trifluoromethyl)pyridin-2-yl)ethyl)amino)butanoate] | – | 35 | 34 | – | 138 | 11 | – | – | – | – | 13.3 | 2.4 | > 100 | 43.3 | 27 | 82 | – | –
7 | C=C(CC(=O)N[C@@H](C)c1ccc(C(F)(F)F)cn1)C(=O)OCCO [Example 34, 2-hydroxyethyl (S)-2-methylene-4-oxo-4-((1-(5-(trifluoromethyl)pyridin-2-yl)ethyl)amino)butanoate] | 25.8 | 71 | 24 | 14.8 | 137 | 11 | 16 | 81 | > 100 | 5.7 | – | – | – | – | – | – | – | –
8 | C=C(CC(=O)N[C@@H](C)c1ccc(C(F)(F)F)cn1)C(=O)OC1CN(S(C)(=O)=O)C1 [Example 37, 1-(methylsulfonyl)azetidin-3-yl (S)-2-methylene-4-oxo-4-((1-(5-(trifluoromethyl)pyridin-2-yl)ethyl)amino)butanoate] | 7.29 | 12 | 104 | 1.7 | 25 | 50 | 11 | 90 | > 100 | 15.8 | – | – | – | – | – | – | – | –
9 | C/C=C(\CC(=O)N[C@@H](C)c1ccc(C(F)(F)F)cc1)C(=O)O [Example 42, (S,E)-2-(2-oxo-2-((1-(4-(trifluoromethyl)phenyl)ethyl)amino)ethyl)but-2-enoic acid] | – | 323 | 3 | – | > 460 | <3 | – | – | – | – | > 68.1 | 2.3 | > 100 | > 100 | 3 | 8 | – | –
10 | C=C(CC(=O)N[C@@H](C)c1ccc(C(F)(F)F)cc1)c1nnn[nH]1 [Example 57, (S)-3-(1H-tetrazol-5-yl)-N-(1-(4-(trifluoromethyl)phenyl)ethyl)but-3-enamide] | > 10 | > 460 | <3 | 1.9 | > 460 | <3 | 48.5 | 55 | > 100 | 46.8 | – | – | – | – | – | – | – | –
11 | C=C(CC(=O)OCCCCCCCC)C(=O)OCC(=O)O [RE2, reference compound] | – | – | – | – | – | – | – | – | – | – | – | – | – | – | – | – | >99 | >99
